Measurements: patent US10765114B2, “4-amino-6-(pyridyl and 2-substitutedphenyl)-picolinates and 6-amino-2-(pyridyl and 2-substitutedphenyl)-pyrimidine-4-carboxylates and their use as herbicides” (Dow AgroSciences LLC, priority 2013, dated 2020)
Read-outs that look alike come from different tables or passages of the source.

Legend:
[1] = test system: Key Broadleaf Weed and Crop Species; experiment: Post-Emergent Test II (Table 5); format: in vivo; conditions: post-emergence, 336 h, given as numbers; for pest or weed control at 70 g/ha: application rate 70 (kg ai/ha; footnote: g ai/ha); for pest or weed control at 140 g/ha: application rate 140 (kg ai/ha; footnote: g ai/ha)
In short: (§1)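 Growth stage at treatment: first or second true leaf. Application: compound in acetone/DMSO diluted into an adjuvant-containing aqueous mix, sprayed at 187 L/ha at several rates. Assessment: visual 0-100% injury at 14 days against untreated plants.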

[2] = test system: Key Grass and Sedge Weeds as well as Grass Crops; experiment: Post-Emergent Test II (Table 6); format: in vivo; conditions: given as numbers; for Visual Growth Reduction (%) 14 Days After Application, CYPSS: CYPSS (CYPES: yellow nutsedge, Cyperus esculentus); for Visual Growth Reduction (%) 14 Days After Application, DIGSA: DIGSA: crabgrass (Digitaria sanguinalis); for Visual Growth Reduction (%) 14 Days After Application, ECHSS: ECHSS (ECHCG: barnyardgrass, Echinochloa crus-galli); for Visual Growth Reduction (%) 14 Days After Application, ORYSS: ORYSS (ORYSA: rice, Oryza sativa); for Visual Growth Reduction (%) 14 Days After Application, ORYSS / Visual Growth Reduction (%) 14 Days After Application, TRZSS / Visual Growth Reduction (%) 14 Days After Application, ZEAMX: crop; for Visual Growth Reduction (%) 14 Days After Application, SETFA: SETFA: giant foxtail (Setaria faberi); for Visual Growth Reduction (%) 14 Days After Application, SORVU: SORVU: johnsongrass (Sorghum vulgare); for Visual Growth Reduction (%) 14 Days After Application, TRZSS: TRZSS (TRZAS: wheat, spring, Triticum aestivum); for Visual Growth Reduction (%) 14 Days After Application, ZEAMX: ZEAMX: maize, corn (Zea mays)
In short: as §1

[3] = Abutilon theophrasti, ABUTH: velvetleaf (Abutilon theophrasti), read-out: Visual Growth Reduction (%) 14 Days After Application ABUTH
[4] = Amaranthus retroflexus, AMARE: redroot pigweed (Amaranthus retroflexus), read-out: Visual Growth Reduction (%) 14 Days After Application AMARE
[5] = Brassica napus, BRSSS: oilseed rape, canola (Brassica napus), read-out: Visual Growth Reduction (%) 14 Days After Application BRSSS
[6] = Chenopodium album, CHEAL: lambsquarters (Chenopodium album), read-out: Visual Growth Reduction (%) 14 Days After Application CHEAL
[7] = Euphorbia heterophylla, EPHHL: wild poinsettia (Euphorbia heterophylla), read-out: Visual Growth Reduction (%) 14 Days After Application EPHHL
[8] = Helianthus annuus, HELAN: sunflower (Helianthus annuus), read-out: Visual Growth Reduction (%) 14 Days After Application HELAN
[9] = Viola tricolor, VIOTR: wild pansy (Viola tricolor), read-out: Visual Growth Reduction (%) 14 Days After Application VIOTR

Row | SMILES | melting point | pest or weed control at 70 g/ha [1, 3] | pest or weed control at 140 g/ha [1, 3] | pest or weed control at 70 g/ha [1, 4] | pest or weed control at 140 g/ha [1, 4] | pest or weed control at 70 g/ha [1, 5] | pest or weed control at 140 g/ha [1, 5] | pest or weed control at 70 g/ha [1, 6] | pest or weed control at 140 g/ha [1, 6] | pest or weed control at 70 g/ha [1, 7] | pest or weed control at 140 g/ha [1, 7] | pest or weed control at 70 g/ha [1, 8] | pest or weed control at 140 g/ha [1, 8] | pest or weed control at 70 g/ha [1, 9] | pest or weed control at 140 g/ha [1, 9] | Visual Growth Reduction (%) 14 Days After Application, CYPSS ([2]; 70 g ai/ha) | Visual Growth Reduction (%) 14 Days After Application, CYPSS ([2]; 140 g ai/ha) | Visual Growth Reduction (%) 14 Days After Application, DIGSA ([2]; 70 g ai/ha) | Visual Growth Reduction (%) 14 Days After Application, DIGSA ([2]; 140 g ai/ha) | Visual Growth Reduction (%) 14 Days After Application, ECHSS ([2]; 70 g ai/ha) | other results
1 | CCc1c(-c2cc(N)c(Cl)c(C(=O)OC)n2)ccc(Cl)c1F [Compound 21] | 140 to 143 °C | – | – | – | – | – | – | – | – | – | – | – | – | – | – | – | – | – | – | – | –
2 | COC(=O)c1nc(-c2ccc(C(F)F)nc2)c(F)c(N)c1Cl [Compound 34, methyl 4-amino-5-chloro-6′-(difluoromethyl)-3-fluoro-2,3′-bipyridine-6-carboxylate] | 144 to 146 °C | – | – | – | – | – | – | – | – | – | – | – | – | – | – | – | – | – | – | – | –
3 | C=Cc1c(C(=O)O)nc(-c2ccc(C(F)(F)F)nc2)c(F)c1N [Compound 101] | – | 85% | 85% | 100% | 100% | 70% | 80% | 100% | 98% | 98% | 100% | 80% | 85% | 75% | 80% | 80% | 80% | 0% | 10% | 80% | Visual Growth Reduction (%) 14 Days After Application, ECHSS ([2]; 140 g ai/ha): 60%; Visual Growth Reduction (%) 14 Days After Application, ORYSS ([2]; 70 g ai/ha): 40%; Visual Growth Reduction (%) 14 Days After Application, ORYSS ([2]; 140 g ai/ha): 95%; Visual Growth Reduction (%) 14 Days After Application, SETFA ([2]; 70 g ai/ha): 20%; Visual Growth Reduction (%) 14 Days After Application, SETFA ([2]; 140 g ai/ha): 40%; Visual Growth Reduction (%) 14 Days After Application, SORVU ([2]; 70 g ai/ha): 45%; Visual Growth Reduction (%) 14 Days After Application, SORVU ([2]; 140 g ai/ha): 75%; Visual Growth Reduction (%) 14 Days After Application, TRZSS ([2]; 70 g ai/ha): 10%; Visual Growth Reduction (%) 14 Days After Application, TRZSS ([2]; 140 g ai/ha): 40%; Visual Growth Reduction (%) 14 Days After Application, ZEAMX ([2]; 70 g ai/ha): 0%; Visual Growth Reduction (%) 14 Days After Application, ZEAMX ([2]; 140 g ai/ha): 25%
4 | C=Cc1c(N)nc(-c2ccc(C(F)(F)F)nc2)nc1C(=O)O [Compound 102] | – | 15% | 15% | 85% | 100% | 20% | 35% | 80% | 75% | 85% | 100% | 65% | 75% | 35% | 80% | 10% | 35% | 0% | 0% | 30% | Visual Growth Reduction (%) 14 Days After Application, ECHSS ([2]; 140 g ai/ha): 70%; Visual Growth Reduction (%) 14 Days After Application, ORYSS ([2]; 70 g ai/ha): 0%; Visual Growth Reduction (%) 14 Days After Application, ORYSS ([2]; 140 g ai/ha): 0%; Visual Growth Reduction (%) 14 Days After Application, SETFA ([2]; 70 g ai/ha): 0%; Visual Growth Reduction (%) 14 Days After Application, SETFA ([2]; 140 g ai/ha): 0%; Visual Growth Reduction (%) 14 Days After Application, SORVU ([2]; 70 g ai/ha): 0%; Visual Growth Reduction (%) 14 Days After Application, SORVU ([2]; 140 g ai/ha): 0%; Visual Growth Reduction (%) 14 Days After Application, TRZSS ([2]; 70 g ai/ha): 0%; Visual Growth Reduction (%) 14 Days After Application, TRZSS ([2]; 140 g ai/ha): 10%; Visual Growth Reduction (%) 14 Days After Application, ZEAMX ([2]; 70 g ai/ha): 0%; Visual Growth Reduction (%) 14 Days After Application, ZEAMX ([2]; 140 g ai/ha): 0%
